Measured values published in patent US10494355B2, “Oxadiazole amine derivative compounds as histone deacetylase 6 inhibitor, and the pharmaceutical composition comprising the same” (Chong Kun Dang Pharmaceutical Corp., priority 2015, dated 2019).

Legend:
[1] = target: T1, human recombinant HDAC1 (Homo sapiens, UniProt Q13547); test: HDAC1 enzyme activity inhibition assay (HDAC Fluorimetric Drug Discovery Kit); assay type: biochemical; settings: human recombinant HDAC1, 10 μM substrate, 30° C. 60 minutes
T1 construct: purchased Enzo Life Science BML-SE456
T1 sequence (Q13547 whole entry): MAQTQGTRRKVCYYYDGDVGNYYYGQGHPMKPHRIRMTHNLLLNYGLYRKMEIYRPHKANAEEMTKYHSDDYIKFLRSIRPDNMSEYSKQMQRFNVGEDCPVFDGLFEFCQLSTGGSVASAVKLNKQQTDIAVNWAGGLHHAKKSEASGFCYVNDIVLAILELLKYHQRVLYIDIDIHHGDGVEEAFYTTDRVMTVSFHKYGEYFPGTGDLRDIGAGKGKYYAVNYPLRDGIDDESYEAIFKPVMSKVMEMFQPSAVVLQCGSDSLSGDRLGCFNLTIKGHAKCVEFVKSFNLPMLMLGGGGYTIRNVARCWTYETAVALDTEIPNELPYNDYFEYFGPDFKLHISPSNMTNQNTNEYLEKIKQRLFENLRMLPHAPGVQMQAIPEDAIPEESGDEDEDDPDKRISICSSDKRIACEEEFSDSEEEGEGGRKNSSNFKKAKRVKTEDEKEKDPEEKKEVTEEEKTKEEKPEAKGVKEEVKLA
Summary of the method: (§1)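 5-fold compound dilutions + 0.3 μg enzyme + 10 μM Fluor de Lys-SIRT1 substrate, 60 min, 30° C; Developer II 30 min; fluorescence Ex 360/Em 460; IC50 by curve fit.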

[2] = target: T2, human recombinant HDAC6 (Homo sapiens, UniProt Q9UBN7); test: HDAC6 enzyme activity inhibition assay (HDAC Fluorimetric Drug Discovery Kit); assay type: biochemical; settings: 30° C. 60 minutes
T2 construct: purchased Calbiochem 382180
T2 sequence (Q9UBN7 1-1215): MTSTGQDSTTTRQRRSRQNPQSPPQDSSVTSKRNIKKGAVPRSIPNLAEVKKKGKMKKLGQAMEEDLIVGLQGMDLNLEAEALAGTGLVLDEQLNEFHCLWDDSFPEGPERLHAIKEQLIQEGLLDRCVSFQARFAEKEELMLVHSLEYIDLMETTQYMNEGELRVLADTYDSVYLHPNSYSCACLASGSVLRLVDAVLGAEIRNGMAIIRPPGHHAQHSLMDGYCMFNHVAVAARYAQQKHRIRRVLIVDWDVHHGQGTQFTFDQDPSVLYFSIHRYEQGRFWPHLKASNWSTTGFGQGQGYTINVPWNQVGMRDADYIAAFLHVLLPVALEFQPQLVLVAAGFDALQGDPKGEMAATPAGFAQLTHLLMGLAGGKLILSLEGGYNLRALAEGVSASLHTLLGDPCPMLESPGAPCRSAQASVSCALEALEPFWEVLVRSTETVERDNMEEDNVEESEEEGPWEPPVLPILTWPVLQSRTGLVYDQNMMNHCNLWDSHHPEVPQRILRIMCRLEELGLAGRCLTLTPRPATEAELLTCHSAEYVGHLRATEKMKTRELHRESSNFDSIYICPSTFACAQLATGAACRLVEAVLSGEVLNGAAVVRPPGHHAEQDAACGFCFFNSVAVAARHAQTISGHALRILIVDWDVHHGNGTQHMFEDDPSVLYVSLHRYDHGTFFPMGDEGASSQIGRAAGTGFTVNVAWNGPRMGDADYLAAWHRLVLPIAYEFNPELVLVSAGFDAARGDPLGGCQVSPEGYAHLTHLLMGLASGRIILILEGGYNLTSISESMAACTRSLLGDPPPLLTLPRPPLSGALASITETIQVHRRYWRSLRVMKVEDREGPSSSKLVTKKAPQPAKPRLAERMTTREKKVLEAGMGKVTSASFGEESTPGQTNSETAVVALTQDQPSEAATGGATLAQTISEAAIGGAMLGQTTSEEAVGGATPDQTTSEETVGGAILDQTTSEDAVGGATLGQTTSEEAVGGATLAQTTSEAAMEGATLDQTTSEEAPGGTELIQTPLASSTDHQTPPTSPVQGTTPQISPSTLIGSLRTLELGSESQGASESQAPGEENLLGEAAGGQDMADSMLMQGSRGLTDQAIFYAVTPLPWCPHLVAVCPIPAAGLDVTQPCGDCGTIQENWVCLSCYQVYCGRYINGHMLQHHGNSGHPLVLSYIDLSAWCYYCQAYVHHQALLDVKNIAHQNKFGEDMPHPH
Summary of the method: as §1

IC50 [1] | IC50 [2] | Structure (SMILES)
> 10000 nM | 43 nM | Fc1ccc(C2(Nc3ncc(-c4nnc(C(F)F)o4)cn3)CC2)c(F)c1 [Compound 2061, 5-(5-(difluoromethyl)-1,3,4-oxadiazol-2-yl)-N-(1-(2,4-difluorophenyl)cyclopropyl)pyrimidin-2-amine]
> 10000 nM | 211 nM | FC(F)(F)c1nnc(-c2cnc(NC3(c4ccccc4Cl)CCC3)nc2)o1 [Compound 1617, N-(1-(2-chlorophenyl)cyclobutyl)-5-(5-(trifluoromethyl)-1,3,4-oxadiazol-2-yl)pyrimidin-2-amine]
